Experiments:
[1] = system: single neuroepithelial stem cells; assay: single cell culture tests: single neuroepithelial stem cell to neural tubes, one ingredient removed from the culture medium or inhibitor added; assay type: cell-based; conditions: for ability of the cells to form neural tubes: ingredient removed from the proliferation culture medium; for ability of the cells to form neural tubes / cell proliferation ability: single cell culture; for cell proliferation ability: ingredient removed alone from the proliferation culture medium
From the text: Additionally, a neuroepithelial stem cell can self-organize into the neural tube structures. Preferably, the operation may be performed as follows: neuroepithelial stem cells cultured for long term are digested into single cells, limitedly diluted, and cultured on wells of a 96-well plate coated with laminin, one cell per well, in the above proliferation culture medium; the liquid is changed every 2-3 days, and the single neuroepithelial stem cells self-organize into a series of neural tube structures at the 14-15th day. These neural tube structures derived from single cells express Sox2, Nestin, Pax6, ZO-1 and N-cadherin.
In addition, in the present embodiment, in order to detect which factors in the whole culture system are essential and necessary for the growth and generation of the neural tubes, it is possible to use the characteristic of the single cell forming the neural tube structure and to perform a series of single cell culture tests where one ingredient is removed from the culture medium every time to estimate which ingredients are essential for self-renewal of the neuroepithelial stem cells and formation of the neural tube.
SU5402 is an inhibitor of the FGF receptor. What the arrow points to is the miniature neural tube structure derived from the single neuroepithelial stem cell in the neuroepithelial stem cell proliferation culture medium containing SU5402.

[2] = system: single neuroepithelial stem cell; assay: modeling neural tube defect disease by the single neuroepithelial stem cell to neural tubes assay (folic acid); assay type: cell-based; conditions: FIG. 5 (C)

Cc1c[nH]c(-c2cnc(NCCNc3ccc(C#N)cn3)nc2-c2ccc(Cl)cc2Cl)n1.Cl [CHIR99021, reference compound]
ability of the cells to form neural tubes [1]: no cell could produce the neural tube structure

NC(=O)c1ccc(-c2nc(-c3ccc4c(c3)OCO4)c(-c3ccccn3)[nH]2)cc1 [SB431542, reference compound]
ability of the cells to form neural tubes [1]: does not affect the ability of the cells to form neural tubes

Cc1c[nH]c(/C=C2\C(=O)Nc3ccccc32)c1CCC(=O)O [SU5402, reference compound]
ability to produce neural tubes ([1]; SU5402 used to inhibit FGFR signaling pathway in proliferation culture medium): all cells lose the ability to produce neural tubes

Nc1nc2ncc(CNc3ccc(C(=O)N[C@@H](CCC(=O)O)C(=O)O)cc3)nc2c(=O)[nH]1 [folic acid]
colony apoptosis versus concentration of the folic acid [2]: in negative correlation with colony apoptosis
neural tube formation versus concentration of the folic acid [2]: in positive correlation with the neural tube formation

Leukemia Inhibitory Factor: regulates cell proliferation and differentiation; ingredient of the proliferation culture medium
cell proliferation ability [1]: significant decrease
ability of the cells to form neural tubes [1]: significant decrease
continuous production of neural tube structures ([1]; secondary clone assays): necessary for cells to continuously produce neural tube structures

bFGF: growth factor; promotes early-stage differentiation and proliferation of neural stem cells
cell proliferation ability [1]: significant decrease
ability of the cells to form neural tubes [1]: significant decrease

Source: patent US20160251612A1, “CULTURE MEDIUM FOR ESTABLISHING NEUROEPITHELIAL STEM CELLS, METHOD FOR ESTABLISHING NEUROEPITHELIAL STEM CELLS, AND APPLICATIONS THEREOF” (YUNNAN KEY LAB OF PRIMATE BIOMEDICINE RESEARCH, priority 2014, published 2016)
